Laboratory results taken from patent publication US20220169654A1, “New Organic Compounds” (Servier Pharmaceuticals LLC, priority 2020, published 2022).

Tests used:
MAT2A homodimer = target: T1, MAT2A homodimer (Homo sapiens, UniProt P31153); experiment: MAT2A inhibition (biochemical, liberated phosphate, PiColorLock Gold); conditions: recombinant MAT2A homodimer; IC50 bin with Max Inh.; read-out: Enzyme Inhibition Bin
T1 construct: inferred from Ni sepharose purification with imidazole elution; made in house; host or cells: Sf9 insect cells, baculovirus (Bac to Bac, pFASTBAC1)
Outline: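 Enzyme at 4 μg/mL and compound equilibrated 60 min at 25 °C, then 60 min reaction after adding substrate mix (500 μM ATP, 400 μM methionine). Released phosphate quantified by colorimetric kit against a phosphate standard curve to give IC50. Secondary format used 1 μg/mL enzyme with 5 h incubation.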

[1] = test system: SAM in HCT116 human colon carcinoma cell line with MTAP gene deleted (MTAP −/−); experiment: Cellular assay of target engagement (SAM), LC-MS/MS, 72 hrs; format: cell-based; conditions: HCT-116, IC50 bin with Max Inh., read-out: Cell 72 h SAM Inhibition (MTAP −/−)
Outline: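 SAM levels were quantified by LC-MS/MS (m/z 399.2→250.1, d3-SAM internal standard) from cold methanol/acetic acid extracts, yielding IC50. Compound was applied as a 10-point 3-fold series for 72 hrs to MTAP −/− HCT116 cells seeded 24 hours before.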

HCT116 MTAP−/− = experiment: Inhibition of cellular proliferation, 4 days, Cell Titer Glo, HCT116 MTAP−/−; format: cell-based; conditions: Homo sapiens, HCT-116, 96 h, IC50 bin with Max Inh., read-out: 4 Day Relative Growth Inhibition (MTAP −/−)
Outline: (§1)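 IC50 derived from blank-corrected ATP luminescence (Cell Titer Glo) expressed relative to within-plate 0.2% DMSO wells. Compound, as a 10-point 3-fold series, was added 24 h after seeding the MTAP+/+ or MTAP−/− HCT116 cells and incubated 4 days at 37° C./5% CO2.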

HCT116 MTAP+/+ = experiment: Inhibition of cellular proliferation, 4 days, Cell Titer Glo, HCT116 MTAP+/+; format: cell-based; conditions: Homo sapiens, HCT-116, 96 h, IC50 bin with Max Inh., read-out: 4 Day Relative Growth Inhibition (MTAP +/+)
Outline: as §1

T1 sequence (P31153 whole entry): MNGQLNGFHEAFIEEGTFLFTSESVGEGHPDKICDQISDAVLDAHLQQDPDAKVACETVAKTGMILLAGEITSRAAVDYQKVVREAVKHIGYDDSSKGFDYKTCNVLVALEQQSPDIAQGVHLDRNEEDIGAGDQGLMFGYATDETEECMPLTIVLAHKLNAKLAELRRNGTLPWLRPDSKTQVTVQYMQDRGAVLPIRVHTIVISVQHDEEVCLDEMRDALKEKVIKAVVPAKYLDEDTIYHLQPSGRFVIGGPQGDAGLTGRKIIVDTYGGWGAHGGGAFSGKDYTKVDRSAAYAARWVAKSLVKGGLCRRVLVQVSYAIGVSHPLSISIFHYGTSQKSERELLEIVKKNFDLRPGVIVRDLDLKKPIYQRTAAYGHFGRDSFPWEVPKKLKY

SMILES	IC50 (MAT2A homodimer)	IC50 [1]	IC50 (HCT116 MTAP−/−)	IC50 (HCT116 MTAP+/+)
[2H]C([2H])([2H])n1cc2cc(-n3nc4c(C#N)cn(CC5CC5)c4c(-c4ccc(C5CC5)nc4)c3=O)ccc2n1 [Example 270, 5-(cyclopropylmethyl)-4-(6-cyclopropylpyridin-3-yl)-2-(2-(methyl-d3)-2H-indazol-5-yl)-3-oxo-3,5-dihydro-2H-pyrrolo[3,2-c]pyridazine-7-carbonitrile]	< 100 nM	< 100 nM	< 100 nM	100 to 1000 nM
Cn1cc2cc(-n3nc4c(C#N)cn(CC5CC5)c4c(-c4ccc(C5CC5)cc4)c3=O)ccc2n1 [Example 138, 5-(cyclopropylmethyl)-4-(4-cyclopropylphenyl)-2-(2-methyl-2H-indazol-5-yl)-3-oxo-3,5-dihydro-2H-pyrrolo[3,2-c]pyridazine-7-carbonitrile]	< 100 nM	< 100 nM	< 100 nM	> 1000 nM
CNC(=O)c1cn(CC2CC2)c2c(-c3ccc(OC(F)F)cc3)c(=O)n(-c3ccc4nn(C)cc4c3)nc12 [Example 169, 5-(cyclopropylmethyl)-4-(4-(difluoromethoxy)phenyl)-N-methyl-2-(2-methyl-2H-indazol-5-yl)-3-oxo-3,5-dihydro-2H-pyrrolo[3,2-c]pyridazine-7-carboxamide]	< 100 nM	< 100 nM	< 100 nM	100 to 1000 nM
[2H]C([2H])([2H])Oc1ccc(-c2c(=O)n(-c3ccc4nn(C)cc4c3)nc3c(C(N)=O)cn(CC4CC4)c23)cc1 [Example 173, 5-(cyclopropylmethyl)-4-(4-(methoxy-d3)phenyl)-2-(2-methyl-2H-indazol-5-yl)-3-oxo-3,5-dihydro-2H-pyrrolo[3,2-c]pyridazine-7-carboxamide]	< 100 nM	< 100 nM	< 100 nM	> 1000 nM
Cn1cc2cc(-n3nc4ccn(CC5CC5)c4c(-c4ccc(C5CC5)cc4)c3=O)ccc2n1 [Example 150, 5-(cyclopropylmethyl)-4-(4-cyclopropylphenyl)-2-(2-methyl-2H-indazol-5-yl)-2,5-dihydro-3H-pyrrolo[3,2-c]pyridazin-3-one]	< 100 nM	< 100 nM	< 100 nM	> 1000 nM
C#Cc1cn(CC2CC2)c2c(-c3ccc(C4CC4)nc3)c(=O)n(-c3ccc4nn(C)cc4c3)nc12 [Example 244, 5-(cyclopropylmethyl)-4-(6-cyclopropylpyridin-3-yl)-7-ethynyl-2-(2-methyl-2H-indazol-5-yl)-2,5-dihydro-3H-pyrrolo[3,2-c]pyridazin-3-one]	< 100 nM	< 100 nM	< 100 nM	100 to 1000 nM
CCc1cn(CC2CC2)c2c(-c3ccc(C4CC4)nc3)c(=O)n(-c3ccc4nn(C)cc4c3)nc12 [Example 247, 5-(cyclopropylmethyl)-4-(6-cyclopropylpyridin-3-yl)-7-ethyl-2-(2-methyl-2H-indazol-5-yl)-2,5-dihydro-3H-pyrrolo[3,2-c]pyridazin-3-one]	< 100 nM	< 100 nM	< 100 nM	> 1000 nM
COc1ccc(-c2c(=O)n(-c3ccc4nn(C)cc4c3)nc3c(C#N)cn(CC4CC4)c23)cn1 [Example 111, 5-(cyclopropylmethyl)-4-(6-methoxypyridin-3-yl)-2-(2-methyl-2H-indazol-5-yl)-3-oxo-3,5-dihydro-2H-pyrrolo[3,2-c]pyridazine-7-carbonitrile]	< 100 nM	< 100 nM	< 100 nM	> 1000 nM
Cn1cc2cc(-n3nc4c(C#N)cn(CC5CC5)c4c(-c4ccc(C(F)(F)F)nc4)c3=O)ccc2n1 [Example 119, 5-(cyclopropylmethyl)-2-(2-methyl-2H-indazol-5-yl)-3-oxo-4-(6-(trifluoromethyl)pyridin-3-yl)-3,5-dihydro-2H-pyrrolo[3,2-c]pyridazine-7-carbonitrile]	< 100 nM	> 1000 nM	> 1000 nM	> 1000 nM
Cc1ccc(-c2c(=O)n(-c3ccc4nn(C)cc4c3)nc3c(CO)cn(CC4CC4)c23)cn1 [Example 255, 5-(cyclopropylmethyl)-7-(hydroxymethyl)-2-(2-methyl-2H-indazol-5-yl)-4-(6-methylpyridin-3-yl)-2,5-dihydro-3H-pyrrolo[3,2-c]pyridazin-3-one]	< 100 nM	< 100 nM	< 100 nM	100 to 1000 nM
[2H]C([2H])([2H])n1cc2cc(-n3nc4c(C(=O)NC)cn(CC5CC5)c4c(-c4ccc(C5CC5)nc4)c3=O)ccc2n1 [Example 172, 5-(cyclopropylmethyl)-4-(6-cyclopropylpyridin-3-yl)-N-methyl-2-(2-(methyl-d3)-2H-indazol-5-yl)-3-oxo-3,5-dihydro-2H-pyrrolo[3,2-c]pyridazine-7-carboxamide]	< 100 nM	< 100 nM	< 100 nM	> 1000 nM
[2H]C([2H])([2H])Oc1ccc(-n2nc3c(C#N)cn(CC4CC4)c3c(-c3ccc(C)nc3)c2=O)cc1 [Example 131, 5-(cyclopropylmethyl)-2-(4-(methoxy-d3)phenyl)-4-(6-methylpyridin-3-yl)-3-oxo-3,5-dihydro-2H-pyrrolo[3,2-c]pyridazine-7-carbonitrile]	< 100 nM	< 100 nM	100 to 1000 nM	> 1000 nM
Cn1cc2cc(-n3nc4c(C#N)cn(CC5CC5)c4c(-c4ccc(C5(C#N)CC5)nc4)c3=O)ccc2n1 [Example 120, 4-(6-(1-cyanocyclopropyl)pyridin-3-yl)-5-(cyclopropylmethyl)-2-(2-methyl-2H-indazol-5-yl)-3-oxo-3,5-dihydro-2H-pyrrolo[3,2-c]pyridazine-7-carbonitrile]	< 100 nM	100 to 1000 nM	> 1000 nM	> 1000 nM
Cn1cc2cc(-n3nc4[nH]c(=O)n(CC5CC5)c4c(-c4ccc(C5CC5)cc4)c3=O)ccc2n1 [Example 204, 5-(cyclopropylmethyl)-4-(4-cyclopropylphenyl)-2-(2-methyl-2H-indazol-5-yl)-2,7-dihydro-3H-imidazo[4,5-c]pyridazine-3,6(5H)-dione]	< 100 nM	< 100 nM	< 100 nM	> 1000 nM
Cn1cc2cc(-n3nc4c(S(N)(=O)=O)cn(CC5CC5)c4c(-c4ccc(C5CC5)cc4)c3=O)ccc2n1 [Example 180, 5-(cyclopropylmethyl)-4-(4-cyclopropylphenyl)-2-(2-methyl-2H-indazol-5-yl)-3-oxo-3,5-dihydro-2H-pyrrolo[3,2-c]pyridazine-7-sulfonamide]	< 100 nM	< 100 nM	< 100 nM	> 1000 nM
CC(C)Cn1cc(C#N)c2nn(-c3ccc4nn(C)cc4c3)c(=O)c(-c3ccc(OC(F)F)cc3)c21 [Example 116, 4-(4-(difluoromethoxy)phenyl)-5-isobutyl-2-(2-methyl-2H-indazol-5-yl)-3-oxo-3,5-dihydro-2H-pyrrolo[3,2-c]pyridazine-7-carbonitrile]	< 100 nM	< 100 nM	100 to 1000 nM	> 1000 nM
Cn1cc2cc(-n3nc4c(CO)cn(CC5CC5)c4c(-c4ccc(C5CC5)nc4)c3=O)ccc2n1 [Example 239, 5-(cyclopropylmethyl)-4-(6-cyclopropylpyridin-3-yl)-7-(hydroxymethyl)-2-(2-methyl-2H-indazol-5-yl)-2,5-dihydro-3H-pyrrolo[3,2-c]pyridazin-3-one]	< 100 nM	< 100 nM	< 100 nM	< 100 nM
Cn1cc2cc(-n3nc4c(C#N)cn(CC5CC5)c4c(-c4ccc([C@H]5CC5(F)F)nc4)c3=O)ccc2n1 [Example 253, (R)-5-(cyclopropylmethyl)-4-(6-(2,2-difluorocyclopropyl)pyridin-3-yl)-2-(2-methyl-2H-indazol-5-yl)-3-oxo-3,5-dihydro-2H-pyrrolo[3,2-c]pyridazine-7-carbonitrile]	< 100 nM	100 to 1000 nM	< 100 nM	> 1000 nM
[2H]C([2H])([2H])Oc1ccc(-c2c(=O)n(-c3ccc4nn(C)cc4c3)nc3cnn(CC4CC4)c23)cc1 [Example 220, 1-(cyclopropylmethyl)-7-(4-(methoxy-d3)phenyl)-5-(2-methyl-2H-indazol-5-yl)-1,5-dihydro-6H-pyrazolo[4,3-c]pyridazin-6-one]	< 100 nM	< 100 nM	< 100 nM	100 to 1000 nM
Cn1cc2cc(-n3nc4ccn(CC5CC5)c4c(-c4ccc(C(N)=O)nc4)c3=O)ccc2n1 [Example 155, 5-(5-(cyclopropylmethyl)-2-(2-methyl-2H-indazol-5-yl)-3-oxo-3,5-dihydro-2H-pyrrolo[3,2-c]pyridazin-4-yl)picolinamide]	< 100 nM	100 to 1000 nM	100 to 1000 nM	> 1000 nM
